# In patent US10242153B2, “Method for determining the risk profile of neoplastic tissue” (NOVAZOI THERANOSTICS, priority 2014, dated 2019):
# Columns and labels:
# N1E-115 cells = test: Neuritogenesis (neurite extension) in serum-starved N1E-115 cells; format: cell-based, murine; details: 48 h, PJ-34 10 μM, Paclitaxel 0.05 μM
# Method: N1E-115 cells grown in serum-starved (SS) medium were evaluated to determine the extent of neurite formation after 48 h of treatment with RedBr-Nos (5 μM), Griseofulvin (10 μM), PJ-34 (10 μM), Paclitaxel (0.05 μM) treatment or untreated control cells (i.e., serum-starved medium (SS) alone). Panels Ai and Aii depict quantitative bar graphs representing the average length of neurites and percentage of population of cells showing neurite length >10 μm, respectively. A hundred cells were counted in each case. […] Panel B depicts an immunoblot showing CLASP1 expression levels in control (C) and CLASP1 siRNA-transfected N1E-115 cells.
# Neuritogenesis is a process in nerve cells involving the extension of polarized, elongated neurites. N1E-115 cells usually extend only one major neurite per cell, which can vary in length from 5 to 500 μm. The growth cones of the neurites serve as primary focal points of motility. The effect of declustering agents on cell motility was evaluated by assessing the length and frequency of neurites formed in a serum-free medium on a laminin-coated surface.
# [1] = system: ZR-75-30 cells with amplified centrosomes (ZR-A); test: Sub-G1 population in ZR-75-30 cells with amplified centrosomes (ZR-A) versus parent cells; format: cell-based; details: 25 μM, 48 h
# Method: Panel A depicts representative DNA histograms comparing cell-cycle kinetics of ZR-75-30 cells and ZR-A cells treated with bromonoscapine (BN, 25 μM), griseofulvin (GF, 25 μM) or PJ34 (25 μM), respectively for 48 h. […] Panel B depicts a quantitative comparison of sub-G1 population in ZR-75-30 and ZR-A cells upon treatment with the three drugs with the same concentration (25 μM) for the same duration (48 h).
# Accordingly, these cells can be pharmacologically manipulated with aphidicolin to generate extra centrosomes. […] Following aphidicolin wash-out, cells were stained using anti-centrin-2 antibodies to verify extra centrosomes by immunofluorescence confocal microscopy. About ˜60% ZR-75-30 cells generated extra centrosomes (6-8 per cell) and were evaluated for their sensitivity to the three drugs, griseofulvin, bromonoscapine, and PJ34, and compared with parent ZR-75-30 cells with normal centrosomes.
# MDA-MB-231 (231) cells = test: Peak subG1 fraction by flow cytometry (propidium iodide) after declustering drugs, 231 cells; format: cell-based, human
# Method: To evaluate the impact of putative declustering drugs on cell cycle progression and hypodiploidy (<2N DNA content, which may indicate apoptotic cells), MDA-MB-231 (231), PC3, and HeLa cells were treated with different concentrations of declustering drugs, stained with propidium iodide, labeled with anti-MPM2 antibody, and then assessed by flow cytometry at multiple time points over 48 hr. […] The duration, highest degree, and rapidity of onset of MA varied between drugs, drug concentrations, and cell lines (data not shown). In general, the maximum MA achieved was less pronounced in Nos- and PJ-treated cells. Drug-induced onset of MA was corroborated by substantial increases in cyclin B1 levels in all cell lines. For most cases, prolonged MA (˜24 hr in duration) was followed by a substantial increase in the subG1 population fraction. […] Instances where the subGl fraction was elevated without cleaved caspase-3 may either represent caspase-independent cell death or the presence of hypodiploid cells whose fate is unclear. In general, no consistent associations between the extent, duration, or timing of MA within drugs or across cell lines was found.
# HeLa cells = test: Centrosome amplification (CA) by microscopy, HeLa cells; format: cell-based; details: for cells having CA (maximum extent) / increase in CA over controls: mitotic HeLa cells
# Method: (§1) Consequently, CA was assessed in cultures treated with different concentrations of declustering drugs for 6, 12, 18, or 24 h and untreated controls via microscopy. Centrosomes were identified by γ-tubulin and centrin-2 colocalization at discrete foci. […] The peak percent CA detected over 24 h is shown in FIG. 13 (only statistically significant (P<0.05) increases over control values are represented in the Figures). To better understand the “potency” of drug-induced CA with time, the average fold change in CA over controls over 24 h was assessed (FIG. 12, panel A), whereby the extent of CA across time points (i.e., 6, 12, 18, and 24 hr) was averaged and then divided by the extent of CA in control (i.e., 0 hr). All of the drugs at least doubled the peak extent of CA in all cell lines tested (FIG. 12, panel A), although the final extent of CA could be small or large in magnitude depending on the initial centrosomal burden as shown in FIG. 11. […] The peak extent in interphase HeLa cells was somewhat less at 30.7% and 48.1% for 10 and 25 μM RBN, respectively (FIG. 13, panel A). For Nos and BN, there was no major difference in CA levels in interphase versus mitotic cells.
# 231, HeLa and PC3 cells = test: Centrosome amplification (CA) by microscopy across cancer cell lines; format: cell-based; details: 25 μM
# Method: Consequently, CA was assessed in cultures treated with different concentrations of declustering drugs for 6, 12, 18, or 24 h and untreated controls via microscopy. Centrosomes were identified by γ-tubulin and centrin-2 colocalization at discrete foci.
# The peak percent CA detected over 24 h is shown in FIG. 13 (only statistically significant (P<0.05) increases over control values are represented in the Figures).
# To better understand the “potency” of drug-induced CA with time, the average fold change in CA over controls over 24 h was assessed (FIG. 12, panel A), whereby the extent of CA across time points (i.e., 6, 12, 18, and 24 hr) was averaged and then divided by the extent of CA in control (i.e., 0 hr). All of the drugs at least doubled the peak extent of CA in all cell lines tested (FIG. 12, panel A), although the final extent of CA could be small or large in magnitude depending on the initial centrosomal burden as shown in FIG. 11. […] The extent of CA was less in interphase cells, with maximum values of 31% and 87% for 10 and 25 μM RBN (FIG. 13, panel A). […] The peak extent in interphase HeLa cells was somewhat less at 30.7% and 48.1% for 10 and 25 μM RBN, respectively (FIG. 13, panel A). For Nos and BN, there was no major difference in CA levels in interphase versus mitotic cells.
# [2] = system: PLK4, Cyclin E, and Aurora A; test: Western blotting of markers of centrosome amplification; format: cell-based; details: PC3 cells, 25 μM
# 231 cells = test: Centrosome amplification (CA) by microscopy (γ-tubulin/centrin-2 foci), 231 cells; format: cell-based, human
# Method: as §1
# [3] = system: human ovarian cancer xenografts; details: nude mice carrying human ovarian cancer xenografts; cited from earlier work
# [4] = interphase HeLa cells, 25 μM, over 24 h
compound,measurement,setting,value
"CN(C)CC(=O)Nc1ccc2[nH]c(=O)c3ccccc3c2c1 [PJ, PJ-34]",inhibition of neurite extension,N1E-115 cells,moderate inhibition
same,sub-G1 population versus parent ZR-75-30 cells,[1],much higher sub-G1 population compared to parent ZR-75-30 cells
same,Peak subG1 percents over 48 h,MDA-MB-231 (231) cells; 10 μM,37.0%
same,Peak subG1 percents over 48 h,MDA-MB-231 (231) cells; 25 μM,65.0%
same,maximum (peak) subG1 fraction relative to control,MDA-MB-231 (231) cells; 25 μM,10.4 × control
same,increase in peak CA extent over controls,"HeLa cells; interphase HeLa cells, 25 μM",~20 fold
same,peak (final) extent of CA,HeLa cells; [4],< 20%
reduced-9-bromonoscapine [RBN],induction of CA,"231, HeLa and PC3 cells",induced CA in all three cell lines
same,Peak subG1 percents over 48 h,MDA-MB-231 (231) cells; 10 μM,47.0%
same,Peak subG1 percents over 48 h,MDA-MB-231 (231) cells; 25 μM,80.8%
same,maximum (peak) subG1 fraction relative to control,MDA-MB-231 (231) cells; 25 μM,25 × control
same,peak extent of CA,"HeLa cells; interphase HeLa cells, 10 μM, over 24 h",30.7%
same,peak (final) extent of CA,HeLa cells; [4],48.1%
same,cells having CA (maximum extent),HeLa cells; 10 μM,78%
same,increase in CA over controls,HeLa cells; 10 μM,approximately 40 fold
same,cells having CA (maximum extent),HeLa cells; 25 μM,42%
same,increase in CA over controls,HeLa cells; 25 μM,~20 fold
same,expression of Cyclin E and PLK4,[2],increased Cyclin E and PLK4 expression
same,change of peak CA extent over controls,"231 cells; 231 cells, 25 μM",slightly more than doubled
same,final extent of CA,"231 cells; 231 cells, 25 μM, cell cycle stage not stated",around 90%
same,maximum extent of CA,"231 cells; interphase 231 cells, 10 μM",31%
same,maximum extent of CA,"231 cells; interphase 231 cells, 25 μM",87%
same,increase in CA over controls,"231 cells; mitotic 231 cells, 10 μM",~2.5 fold
same,maximum extent of CA,"231 cells; mitotic 231 cells, 10 μM",56%
same,increase in CA over controls,"231 cells; mitotic 231 cells, 25 μM",~2.0 fold
same,maximum extent of CA,"231 cells; mitotic 231 cells, 25 μM",96%
same,toxicity in normal tissues,[3],toxicity was not detected
same,tumor progression,[3],inhibited tumor progression
